According to patent US11083725B2 (priority 2014, dated 2021):

Test system: NHBE cells
Assay: Biolog metabolic array: substrate use by NHBE cells with or without CA09 infection
Assay type: cell-based, human
Details: for Substrate use, 590 nm absorbance normalized to zero hour, 1 hr: Biolog PMM2, 1 hr; for Substrate use, 590 nm absorbance normalized to zero hour, 5 hr: Biolog PMM2, 5 hr; for Substrate use, 590 nm absorbance normalized to zero hour, 7 hr: Biolog PMM2, 7 hr
[1] = Control (uninfected) NHBE cells
[2] = Virus (CA09-infected, MOI 1) NHBE cells
[3] = Virus: CA09-infected NHBE cells, MOI 1, Biolog PMM2
[4] = Virus (CA09-infected NHBE cells, MOI 1)

| Structure (SMILES) | 590 nm absorbance normalized to zero hour (substrate use), 1 hr [1] | 590 nm absorbance normalized to zero hour (substrate use), 2 hr [1] | 590 nm absorbance normalized to zero hour (substrate use), 3 hr [1] | 590 nm absorbance normalized to zero hour (substrate use), 4 hr [1] | 590 nm absorbance normalized to zero hour (substrate use), 6 hr [1] | 590 nm absorbance normalized to zero hour (substrate use), 8 hr [1] | 590 nm absorbance normalized to zero hour (substrate use), 9 hr [1] | 590 nm absorbance normalized to zero hour (substrate use), 10 hr [1] | 590 nm absorbance normalized to zero hour (substrate use), 11 hr [1] | Substrate use, 590 nm absorbance normalized to zero hour, 1 hr [1] | Substrate use, 590 nm absorbance normalized to zero hour, 5 hr [1] | Substrate use, 590 nm absorbance normalized to zero hour, 7 hr [1] | 590 nm absorbance normalized to zero hour (substrate use), 11 hr [2] | 590 nm absorbance normalized to zero hour (substrate use), 1 hr [3] | 590 nm absorbance normalized to zero hour (substrate use), 2 hr [3] | 590 nm absorbance normalized to zero hour (substrate use), 3 hr [3] | 590 nm absorbance normalized to zero hour (substrate use), 4 hr [3] | 590 nm absorbance normalized to zero hour (substrate use), 5 hr [3] | 590 nm absorbance normalized to zero hour (substrate use), 6 hr [3] | 590 nm absorbance normalized to zero hour (substrate use), 7 hr [3] | other results |
| --- | --- | --- | --- | --- | --- | --- | --- | --- | --- | --- | --- | --- | --- | --- | --- | --- | --- | --- | --- | --- | --- |
| O=C(O)CCC(=O)O [Succinic Acid] | 1.02 | 1.06 | 1.08 | 1.06 | 0.39 | 0.96 | 0.94 | 0.87 | 0.81 | 1.02 | 1.04 | 1.00 | 3.12 | 1.69 | 2.01 | 2.37 | 2.37 | 2.54 | 2.73 | 2.78 | 590 nm absorbance normalized to zero hour (substrate use), 1 hr [2]: 1.69; 590 nm absorbance normalized to zero hour (substrate use), 2 hr [2]: 2.01; 590 nm absorbance normalized to zero hour (substrate use), 3 hr [2]: 2.37; 590 nm absorbance normalized to zero hour (substrate use), 4 hr [2]: 2.37; 590 nm absorbance normalized to zero hour (substrate use), 5 hr [2]: 2.54; 590 nm absorbance normalized to zero hour (substrate use), 6 hr [2]: 2.73; 590 nm absorbance normalized to zero hour (substrate use), 7 hr [2]: 2.78; 590 nm absorbance normalized to zero hour (substrate use), 8 hr [2]: 2.85; 590 nm absorbance normalized to zero hour (substrate use), 9 hr [2]: 3.06; 590 nm absorbance normalized to zero hour (substrate use), 10 hr [2]: 2.98; 590 nm absorbance normalized to zero hour (substrate use), 8 hr [3]: 2.85; 590 nm absorbance normalized to zero hour (substrate use), 9 hr [3]: 3.06; 590 nm absorbance normalized to zero hour (substrate use), 10 hr [3]: 2.98; 590 nm absorbance normalized to zero hour (substrate use), 11 hr [3]: 3.12 |
| O=C(CO)[C@@H](O)[C@@H](O)[C@H](O)CO [Tagatose] |  |  |  |  |  |  |  |  |  |  |  |  | 0.48 |  |  |  |  |  |  |  |  |
| Cc1cn([C@H]2C[C@H](O)[C@@H](CO)O2)c(=O)[nH]c1=O [Thymidine] | 1.65 | 1.61 | 1.67 | 1.64 | 0.92 | 0.62 | 1.52 | 1.43 | 0.81 | 1.65 | 1.75 | 0.61 | 2.21 | 1.52 | 2.29 | 2.27 | 2.32 | 2.34 | 2.33 | 2.34 | 590 nm absorbance normalized to zero hour (substrate use), 1 hr [2]: 1.52; 590 nm absorbance normalized to zero hour (substrate use), 2 hr [2]: 2.29; 590 nm absorbance normalized to zero hour (substrate use), 3 hr [2]: 2.27; 590 nm absorbance normalized to zero hour (substrate use), 4 hr [2]: 2.32; 590 nm absorbance normalized to zero hour (substrate use), 5 hr [2]: 2.34; 590 nm absorbance normalized to zero hour (substrate use), 6 hr [2]: 2.33; 590 nm absorbance normalized to zero hour (substrate use), 7 hr [2]: 2.34; 590 nm absorbance normalized to zero hour (substrate use), 8 hr [2]: 2.26; 590 nm absorbance normalized to zero hour (substrate use), 9 hr [2]: 2.28; 590 nm absorbance normalized to zero hour (substrate use), 10 hr [2]: 0.94; 590 nm absorbance normalized to zero hour (substrate use), 8 hr [3]: 2.26; 590 nm absorbance normalized to zero hour (substrate use), 9 hr [3]: 2.28; 590 nm absorbance normalized to zero hour (substrate use), 10 hr [3]: 0.94; 590 nm absorbance normalized to zero hour (substrate use), 11 hr [3]: 2.21 |
| O=C(O)CC(CC(=O)O)C(=O)O [Tricarballylic Acid] | 1.07 | 1.03 | 0.79 | 1.20 | 0.35 | 0.54 | 0.83 | 0.74 | 0.59 | 1.07 | 0.72 | 0.89 |  | 0.20 | 0.25 | 0.29 | 0.29 | 0.32 | 0.34 | 0.36 | 590 nm absorbance normalized to zero hour (substrate use), 1 hr [4]: 0.20; 590 nm absorbance normalized to zero hour (substrate use), 2 hr [4]: 0.25; 590 nm absorbance normalized to zero hour (substrate use), 3 hr [4]: 0.29; 590 nm absorbance normalized to zero hour (substrate use), 4 hr [4]: 0.29; 590 nm absorbance normalized to zero hour (substrate use), 5 hr [4]: 0.32; 590 nm absorbance normalized to zero hour (substrate use), 6 hr [4]: 0.34; 590 nm absorbance normalized to zero hour (substrate use), 7 hr [4]: 0.36; 590 nm absorbance normalized to zero hour (substrate use), 8 hr [4]: 0.36; 590 nm absorbance normalized to zero hour (substrate use), 9 hr [4]: 0.39; 590 nm absorbance normalized to zero hour (substrate use), 10 hr [4]: 0.40; 590 nm absorbance normalized to zero hour (substrate use), 11 hr [4]: 0.38; 590 nm absorbance normalized to zero hour (substrate use), 8 hr [3]: 0.36; 590 nm absorbance normalized to zero hour (substrate use), 9 hr [3]: 0.39; 590 nm absorbance normalized to zero hour (substrate use), 10 hr [3]: 0.40; 590 nm absorbance normalized to zero hour (substrate use), 11 hr [3]: 0.38 |
